Laboratory results taken from the kinase profiling compilation of Christmann-Franck et al. (2016).

How the values were obtained:
Test in all cases: radiometric filter-binding kinase assay, Kinase HotSpot
Conditions in all cases: compound 0.5 µM; ATP 10 µM
[1] = biological target: PRKCB1 (human) (UniProt P05771)
[2] = biological target: MST1R (human) (UniProt Q04912)
[3] = biological target: PRKCZ (human) (UniProt Q05513)
[4] = biological target: CSNK1G2 (human) (UniProt P78368)
[5] = biological target: IRAK1 (human) (UniProt P51617)
[6] = biological target: GSK3B (human) (UniProt P49841)
[7] = biological target: PBK (human) (UniProt Q96KB5)
[8] = biological target: DYRK3 (human) (UniProt O43781)
[9] = biological target: SGK3 (human) (UniProt Q96BR1)
[10] = biological target: TGFBR1 (human) (UniProt P36897)
[11] = biological target: BRSK1 (human) (UniProt Q8TDC3)
[12] = biological target: CDC42BPA (human) (UniProt Q5VT25)
[13] = biological target: STK25 (human) (UniProt O00506)
[14] = biological target: STK11 (human) (UniProt Q15831)
[15] = biological target: CDK2 CCNA2 (human) (UniProt P24941+P20248)
[16] = biological target: KIT (human) (UniProt P10721)
[17] = biological target: DMPK (human) (UniProt Q09013)
[18] = biological target: ADRBK1 (human) (UniProt P25098)
[19] = biological target: FYN (human) (UniProt P06241)
[20] = biological target: FGFR2 (human) (UniProt P21802)
[21] = biological target: DSTYK (human) (UniProt Q6XUX3)
[22] = biological target: CDK6 CCND1 (human) (UniProt Q00534+P24385)
[23] = biological target: LRRK2 (human) (UniProt Q5S007)
[24] = biological target: CLK3 (human) (UniProt P49761)
[25] = biological target: MAP3K3 (human) (UniProt Q99759)
[26] = biological target: PIM2 (human) (UniProt Q9P1W9)
[27] = biological target: ACVR1B (human) (UniProt P36896)
[28] = biological target: PRKD2 (human) (UniProt Q9BZL6)
[29] = biological target: NEK1 (human) (UniProt Q96PY6)
[30] = biological target: CAMK1 (human) (UniProt Q14012)
[31] = biological target: PRKCH (human) (UniProt P24723)
[32] = biological target: NLK (human) (UniProt Q9UBE8)
[33] = biological target: PLK2 (human) (UniProt Q9NYY3)
[34] = biological target: PAK3 (human) (UniProt O75914)
[35] = biological target: RET (human) (UniProt P07949)
[36] = biological target: NEK2 (human) (UniProt P51955)
[37] = biological target: STK33 (human) (UniProt Q9BYT3)
[38] = biological target: RPS6KA6 KD1 KD2 (human) (UniProt Q9UK32)
[39] = biological target: PIM1 (human) (UniProt P11309)
[40] = biological target: ROCK1 (human) (UniProt Q13464)
[41] = biological target: MAPK14 (human) (UniProt Q16539)
[42] = biological target: ERBB4 (human) (UniProt Q15303)

Chain of PAK3 (human) (O75914 whole entry, looked up): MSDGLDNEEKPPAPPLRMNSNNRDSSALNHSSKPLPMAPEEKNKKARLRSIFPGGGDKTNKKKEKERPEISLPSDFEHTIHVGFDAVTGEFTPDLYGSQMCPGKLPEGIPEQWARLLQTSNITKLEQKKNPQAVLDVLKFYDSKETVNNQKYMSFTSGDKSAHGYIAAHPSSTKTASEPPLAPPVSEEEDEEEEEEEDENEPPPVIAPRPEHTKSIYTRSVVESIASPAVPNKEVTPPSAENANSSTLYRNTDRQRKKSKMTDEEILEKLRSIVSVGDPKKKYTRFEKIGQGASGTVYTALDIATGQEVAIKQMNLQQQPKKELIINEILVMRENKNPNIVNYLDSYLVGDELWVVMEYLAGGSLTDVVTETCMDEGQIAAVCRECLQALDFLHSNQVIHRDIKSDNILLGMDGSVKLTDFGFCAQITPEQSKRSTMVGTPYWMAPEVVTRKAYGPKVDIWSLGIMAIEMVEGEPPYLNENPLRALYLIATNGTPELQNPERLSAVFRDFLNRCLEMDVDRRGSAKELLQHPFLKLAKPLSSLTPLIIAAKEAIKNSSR
Chain of PLK2 (human) (Q9NYY3 whole entry, looked up): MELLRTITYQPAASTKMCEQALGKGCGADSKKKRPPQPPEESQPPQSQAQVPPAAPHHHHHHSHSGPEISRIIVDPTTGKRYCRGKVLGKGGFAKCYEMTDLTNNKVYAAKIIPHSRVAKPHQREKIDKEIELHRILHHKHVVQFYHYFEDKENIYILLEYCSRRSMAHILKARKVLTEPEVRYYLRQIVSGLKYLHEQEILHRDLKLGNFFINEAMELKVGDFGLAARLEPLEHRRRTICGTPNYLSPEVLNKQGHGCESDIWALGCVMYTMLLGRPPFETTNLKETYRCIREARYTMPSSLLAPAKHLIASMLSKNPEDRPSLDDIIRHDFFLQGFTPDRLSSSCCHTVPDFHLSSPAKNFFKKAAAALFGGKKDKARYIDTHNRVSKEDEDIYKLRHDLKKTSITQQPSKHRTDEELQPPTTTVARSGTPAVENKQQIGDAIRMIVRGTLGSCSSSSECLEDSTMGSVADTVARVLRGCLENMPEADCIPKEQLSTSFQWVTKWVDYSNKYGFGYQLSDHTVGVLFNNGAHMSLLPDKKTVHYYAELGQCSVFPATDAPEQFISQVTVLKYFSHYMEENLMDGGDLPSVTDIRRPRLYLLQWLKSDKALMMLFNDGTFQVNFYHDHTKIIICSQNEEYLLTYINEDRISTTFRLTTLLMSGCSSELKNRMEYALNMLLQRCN
Chain of CLK3 (human) (P49761 whole entry, looked up): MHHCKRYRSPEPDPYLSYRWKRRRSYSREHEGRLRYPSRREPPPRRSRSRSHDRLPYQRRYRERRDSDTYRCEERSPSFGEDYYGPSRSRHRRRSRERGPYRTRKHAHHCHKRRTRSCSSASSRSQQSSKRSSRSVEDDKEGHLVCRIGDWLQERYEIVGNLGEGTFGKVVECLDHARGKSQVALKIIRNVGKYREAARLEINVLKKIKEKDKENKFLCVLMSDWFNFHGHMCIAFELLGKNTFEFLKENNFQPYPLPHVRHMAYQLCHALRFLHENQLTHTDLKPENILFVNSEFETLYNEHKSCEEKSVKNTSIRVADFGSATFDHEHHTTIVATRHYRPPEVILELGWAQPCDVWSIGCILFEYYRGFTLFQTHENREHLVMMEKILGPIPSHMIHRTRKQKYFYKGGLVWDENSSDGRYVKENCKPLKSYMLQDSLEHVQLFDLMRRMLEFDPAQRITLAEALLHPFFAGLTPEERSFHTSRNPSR
Chain of ADRBK1 (human) (P25098 whole entry, looked up): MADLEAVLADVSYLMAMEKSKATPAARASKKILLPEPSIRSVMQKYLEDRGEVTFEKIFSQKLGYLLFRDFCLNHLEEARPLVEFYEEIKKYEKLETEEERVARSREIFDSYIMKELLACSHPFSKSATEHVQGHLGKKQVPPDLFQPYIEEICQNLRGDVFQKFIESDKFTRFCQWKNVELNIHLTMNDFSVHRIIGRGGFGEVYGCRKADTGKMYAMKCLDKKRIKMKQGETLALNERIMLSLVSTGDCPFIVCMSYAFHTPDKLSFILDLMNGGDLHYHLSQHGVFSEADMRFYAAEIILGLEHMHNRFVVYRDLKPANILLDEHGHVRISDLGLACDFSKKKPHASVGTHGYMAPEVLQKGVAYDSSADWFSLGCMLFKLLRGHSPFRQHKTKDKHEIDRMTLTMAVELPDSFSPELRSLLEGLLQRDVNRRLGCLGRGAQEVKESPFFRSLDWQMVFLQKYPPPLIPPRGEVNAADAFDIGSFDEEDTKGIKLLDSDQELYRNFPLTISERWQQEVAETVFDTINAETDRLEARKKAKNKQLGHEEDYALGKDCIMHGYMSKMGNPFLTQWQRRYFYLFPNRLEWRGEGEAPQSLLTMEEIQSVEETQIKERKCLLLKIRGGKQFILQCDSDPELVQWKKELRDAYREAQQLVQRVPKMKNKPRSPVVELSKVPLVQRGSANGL
Chain of IRAK1 (human) (P51617 whole entry, looked up): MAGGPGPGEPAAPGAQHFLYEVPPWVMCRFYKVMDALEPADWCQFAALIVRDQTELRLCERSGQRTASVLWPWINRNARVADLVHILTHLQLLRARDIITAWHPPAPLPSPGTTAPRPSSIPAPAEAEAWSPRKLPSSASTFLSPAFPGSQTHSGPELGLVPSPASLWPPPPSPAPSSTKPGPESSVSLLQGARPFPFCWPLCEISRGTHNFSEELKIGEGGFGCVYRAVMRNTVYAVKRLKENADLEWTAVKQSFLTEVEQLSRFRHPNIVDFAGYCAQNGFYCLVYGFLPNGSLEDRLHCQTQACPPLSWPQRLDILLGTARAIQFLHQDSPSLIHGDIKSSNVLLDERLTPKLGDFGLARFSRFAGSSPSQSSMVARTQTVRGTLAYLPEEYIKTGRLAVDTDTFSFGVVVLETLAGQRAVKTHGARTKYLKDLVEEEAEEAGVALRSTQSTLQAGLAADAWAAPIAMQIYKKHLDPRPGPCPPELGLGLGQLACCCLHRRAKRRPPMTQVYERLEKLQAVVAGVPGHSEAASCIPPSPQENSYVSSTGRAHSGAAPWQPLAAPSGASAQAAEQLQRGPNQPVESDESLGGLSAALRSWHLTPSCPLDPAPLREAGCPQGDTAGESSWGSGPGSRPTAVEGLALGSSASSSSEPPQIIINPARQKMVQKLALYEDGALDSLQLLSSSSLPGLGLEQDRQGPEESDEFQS
Chain of FGFR2 (human) (P21802 whole entry, looked up): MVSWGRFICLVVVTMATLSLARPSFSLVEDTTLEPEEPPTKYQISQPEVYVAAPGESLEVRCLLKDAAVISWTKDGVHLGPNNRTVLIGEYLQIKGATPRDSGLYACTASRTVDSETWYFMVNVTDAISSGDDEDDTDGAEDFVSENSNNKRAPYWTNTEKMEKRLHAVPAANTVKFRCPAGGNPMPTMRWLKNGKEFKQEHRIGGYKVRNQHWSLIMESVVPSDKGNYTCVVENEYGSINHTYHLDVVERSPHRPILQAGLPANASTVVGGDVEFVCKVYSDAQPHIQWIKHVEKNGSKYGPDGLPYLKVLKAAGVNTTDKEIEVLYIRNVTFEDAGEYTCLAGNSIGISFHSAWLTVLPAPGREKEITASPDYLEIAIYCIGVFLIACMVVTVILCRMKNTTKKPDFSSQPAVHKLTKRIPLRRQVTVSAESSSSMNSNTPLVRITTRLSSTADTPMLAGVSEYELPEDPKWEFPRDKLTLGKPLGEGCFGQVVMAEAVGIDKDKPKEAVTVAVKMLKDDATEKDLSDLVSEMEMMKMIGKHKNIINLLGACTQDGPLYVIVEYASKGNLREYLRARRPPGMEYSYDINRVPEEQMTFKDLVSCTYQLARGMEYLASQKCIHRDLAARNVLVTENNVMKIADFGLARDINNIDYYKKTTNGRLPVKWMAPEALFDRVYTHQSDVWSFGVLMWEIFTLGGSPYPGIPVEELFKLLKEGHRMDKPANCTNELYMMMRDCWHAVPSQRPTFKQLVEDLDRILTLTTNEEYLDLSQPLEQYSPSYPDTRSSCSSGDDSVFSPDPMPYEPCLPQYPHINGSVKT
Chain of DYRK3 (human) (O43781 whole entry, looked up): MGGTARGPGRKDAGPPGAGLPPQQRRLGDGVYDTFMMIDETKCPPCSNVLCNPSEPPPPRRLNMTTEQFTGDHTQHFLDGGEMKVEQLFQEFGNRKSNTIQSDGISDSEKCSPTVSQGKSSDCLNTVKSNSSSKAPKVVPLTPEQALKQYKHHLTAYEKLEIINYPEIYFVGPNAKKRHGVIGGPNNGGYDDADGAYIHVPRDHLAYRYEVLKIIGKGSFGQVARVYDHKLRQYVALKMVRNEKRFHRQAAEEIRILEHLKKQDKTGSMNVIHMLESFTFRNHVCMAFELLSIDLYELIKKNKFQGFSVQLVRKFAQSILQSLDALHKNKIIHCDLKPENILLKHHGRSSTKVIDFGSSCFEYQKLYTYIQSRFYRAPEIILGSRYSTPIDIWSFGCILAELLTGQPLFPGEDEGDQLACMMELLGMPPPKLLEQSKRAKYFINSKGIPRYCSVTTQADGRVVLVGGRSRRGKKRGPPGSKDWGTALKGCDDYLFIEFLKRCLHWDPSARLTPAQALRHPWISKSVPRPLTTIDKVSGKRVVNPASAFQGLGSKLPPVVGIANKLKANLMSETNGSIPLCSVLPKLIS
Chain of CAMK1 (human) (Q14012 whole entry, looked up): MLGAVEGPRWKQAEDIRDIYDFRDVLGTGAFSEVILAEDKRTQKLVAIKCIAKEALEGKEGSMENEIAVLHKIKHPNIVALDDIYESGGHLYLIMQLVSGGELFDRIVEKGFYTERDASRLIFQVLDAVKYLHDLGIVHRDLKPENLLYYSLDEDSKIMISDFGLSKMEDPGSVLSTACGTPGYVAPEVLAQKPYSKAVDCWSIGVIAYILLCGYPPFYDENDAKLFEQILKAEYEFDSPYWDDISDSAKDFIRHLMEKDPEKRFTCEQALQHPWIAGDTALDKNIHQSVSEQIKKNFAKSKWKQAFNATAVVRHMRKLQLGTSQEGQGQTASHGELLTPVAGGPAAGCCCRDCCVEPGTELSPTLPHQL

O=C(CCCc1ccc(-c2ccccc2F)cc1)Nc1ccc(O)cc1
residual activity [1]: 93.4% | residual activity [2]: 106% | residual activity [3]: 116% | residual activity [4]: 99.4% | residual activity [5]: 100% | residual activity [6]: 99.4% | residual activity [7]: 90.8% | residual activity [8]: 94.5% | residual activity [9]: 106% | residual activity [10]: 102% | residual activity [11]: 103% | residual activity [12]: 103% | residual activity [13]: 105% | residual activity [14]: 97.4% | residual activity [15]: 92.7% | residual activity [16]: 96.3% | residual activity [17]: 130% | residual activity [18]: 105% | residual activity [19]: 94.7% | residual activity [20]: 102% | residual activity [21]: 103% | residual activity [22]: 98.2% | residual activity [23]: 98% | residual activity [24]: 124% | residual activity [25]: 108% | residual activity [26]: 115% | residual activity [27]: 95.9% | residual activity [28]: 97.6% | residual activity [29]: 100% | residual activity [30]: 101% | residual activity [31]: 84% | residual activity [32]: 101% | residual activity [33]: 102% | residual activity [34]: 104% | residual activity [35]: 111% | residual activity [36]: 90.6% | residual activity [37]: 97% | residual activity [38]: 105% | residual activity [39]: 97.9% | residual activity [40]: 106% | residual activity [41]: 89% | residual activity [42]: 107%

O=C(Nc1cccc(Nc2cc(Nc3cccc(C(F)(F)F)c3)ncn2)c1)C1CC1
residual activity [1]: 93.2% | residual activity [2]: 107% | residual activity [3]: 104% | residual activity [4]: 99.1% | residual activity [5]: 111% | residual activity [6]: 114% | residual activity [7]: 103% | residual activity [8]: 101% | residual activity [9]: 106% | residual activity [10]: 97.4% | residual activity [11]: 101% | residual activity [12]: 77.7% | residual activity [13]: 97.4% | residual activity [14]: 100% | residual activity [15]: 99.5% | residual activity [16]: 99.9% | residual activity [17]: 99.7% | residual activity [18]: 97.9% | residual activity [19]: 100% | residual activity [20]: 105% | residual activity [21]: 102% | residual activity [22]: 99.1% | residual activity [23]: 95.6% | residual activity [24]: 102% | residual activity [25]: 95.2% | residual activity [26]: 104% | residual activity [27]: 101% | residual activity [28]: 103% | residual activity [29]: 109% | residual activity [30]: 108% | residual activity [31]: 88.2% | residual activity [32]: 95.9% | residual activity [33]: 109% | residual activity [34]: 101% | residual activity [35]: 109% | residual activity [36]: 99.5% | residual activity [37]: 105% | residual activity [38]: 96.6% | residual activity [39]: 104% | residual activity [40]: 98.7% | residual activity [41]: 98.2% | residual activity [42]: 99.2%

O=C1NC(=O)/C(=C\c2ccc3nccnc3c2)S1
residual activity [1]: 96.9% | residual activity [2]: 97.8% | residual activity [3]: 103% | residual activity [4]: 83.4% | residual activity [5]: 85.5% | residual activity [6]: 93.4% | residual activity [7]: 93% | residual activity [8]: 71.5% | residual activity [9]: 94.3% | residual activity [10]: 98.5% | residual activity [11]: 92.4% | residual activity [12]: 93.1% | residual activity [13]: 99.3% | residual activity [14]: 96.6% | residual activity [15]: 99.7% | residual activity [16]: 87.5% | residual activity [17]: 112% | residual activity [18]: 93.3% | residual activity [19]: 95.3% | residual activity [20]: 95% | residual activity [21]: 89.9% | residual activity [22]: 97.5% | residual activity [23]: 96% | residual activity [24]: 80.8% | residual activity [25]: 100% | residual activity [26]: 100% | residual activity [27]: 109% | residual activity [28]: 104% | residual activity [29]: 73.6% | residual activity [30]: 95.7% | residual activity [31]: 89.7% | residual activity [32]: 92.4% | residual activity [33]: 95.7% | residual activity [34]: 97.4% | residual activity [35]: 97.7% | residual activity [36]: 92.2% | residual activity [37]: 66.3% | residual activity [38]: 87.6% | residual activity [39]: 61.7% | residual activity [40]: 94% | residual activity [41]: 92.9% | residual activity [42]: 99.4%

COc1cc2ncnc(N3CCN(C(=O)Nc4ccc(Oc5ccccc5)cc4)CC3)c2cc1OC
residual activity [1]: 94.5% | residual activity [2]: 90.3% | residual activity [3]: 96% | residual activity [4]: 94.6% | residual activity [5]: 116% | residual activity [6]: 99% | residual activity [7]: 85.8% | residual activity [8]: 86.3% | residual activity [9]: 97.6% | residual activity [10]: 99.5% | residual activity [11]: 86.4% | residual activity [12]: 95.4% | residual activity [13]: 100% | residual activity [14]: 105% | residual activity [15]: 93.1% | residual activity [16]: 48.2% | residual activity [17]: 95.6% | residual activity [18]: 96.7% | residual activity [19]: 112% | residual activity [20]: 92.4% | residual activity [21]: 113% | residual activity [22]: 95.1% | residual activity [23]: 98.3% | residual activity [24]: 88.9% | residual activity [25]: 83.7% | residual activity [26]: 101% | residual activity [27]: 94.7% | residual activity [28]: 91.9% | residual activity [29]: 92.6% | residual activity [30]: 96.9% | residual activity [31]: 86.1% | residual activity [32]: 99.9% | residual activity [33]: 105% | residual activity [34]: 98.1% | residual activity [35]: 104% | residual activity [36]: 81.3% | residual activity [37]: 94.7% | residual activity [38]: 92% | residual activity [39]: 102% | residual activity [40]: 86% | residual activity [41]: 81% | residual activity [42]: 101%
